System: CEA-specific CAR transduced T cells co-cultured with SW480 cells
Assay: T cell activation in co-culture of CEA-specific CAR-T cells with SW480 cells
Format: cell-based, human
Settings: 10 μM AR-C, 24 hours, CD3+CD8+ or CD3+CD4+ population (FIG. 19)
Method: FIG. 19. Effects of P2RY2 agonist and P2RY2 antagonist on T cell activity in T cell-cancer cell co-cultures. T cells transduced with a CEA-specific CAR (CAR-T) were co-cultured with genetically edited SW480 cells for 24 hours in the absence or presence of 40 μM ATP, 200 μM ATPγS, 10 μM Diquafosol, 5 μM Denufosol and 10 μM AR-C 118925XX (AR-C). Control cells: SW480 cells transduced with non-targeting sgRNA and Cas9 (gNT); P2RY2 deficient cells: SW480 cells transduced with P2RY2-targeting sgRNA and Cas9 (gP2RY2-3, gP2RY2-4); B7-H3 (CD276) deficient cells: SW480 cells transduced with B7-H3-targeting sgRNA and Cas9 (gCD276-1); P2RY2 and B7-H3 double deficient cells: SW480 cells transduced with P2RY2-targeting sgRNA, B7-H3-targeting sgRNA, and Cas9 (gCD276-1 gP2RY2-3 DKO, gCD276-1 gP2RY2-4 DKO); P2RY2 overexpression cells: SW480 cells transduced with the open reading frame of P2RY2 (P2RY2-OE); B7-H3 overexpression cells: SW480 cells transduced with the open reading frame of CD276 (CD276-OE). Transduced cancer cells were selected by antibiotics according to antibiotic resistance genes carried by the lentiviral constructs. Flow cytometry analysis of expression of CD25 and CD69 and production of IFNγ within the CD3+CD8+ or CD3+CD4+ cell population is shown (values indicate the percentages of positive cells).
MART-1 specific T cells were generated as described (Mezzadra et al., Nature 549, 106-110 (2017); Jorritsma et al., Blood 110 (10): 3564-3572. (2007)). To generate CD33-specific chimeric antigen receptor (CAR) T cells and CEA-specific CAR-T cells, a CD33Hul95-CD28Z CAR (described in WO 2019/178382) cassette and MFE-23 (described in US20050147614A1)-CD28Z CAR were separately cloned into retroviral vectors, and the resulting virus was used to transduce T cells as described (Mezzadra et al., Nature 549, 106-110 (2017); Jorritsma et al., Blood 110 (10): 3564-3572. (2007)).
The open reading frames of transcripts of P2RY2 (ENST00000393597.7) or CD276 (ENST00000318443.10), were ordered as a codon optimized gBlock Gene Fragment (Integrated DNA Technologies or Twist Bioscience) and cloned into a lentiviral vector containing a blasticidin selection cassette. Constructs were verified by Sanger sequencing.
MART1-specific CD8+ T cells and MART1 epitope-expressing cancer cells were mixed at a ratio of 1:16 to 1:1. CD33 CAR-T cells and CD33 expressing THP-1 cells were mixed at a ratio of 1:16 to 1:4. CEA CAR-T cells and CEA expressing SW480 cells were mixed at a ratio of 1:1. Next, cells were centrifugated at 1,600 g for 3 min and incubated at 37° C. and 5% CO2 for 12-72 hours. T cell activation was assessed by surface staining with anti-CD137-BV421 (4-1BB, Biolegend), anti-CD137-PE/Cy7 (4-1BB, Biolegend), anti-CD69-APC/Fire™ 750 (FN50, Biolegend), anti-CD25-AF700 (BC96, Biolegend), anti-CD25-APC (BC96, Biolegend) antibodies and intracellular staining with anti-IL-2-PE/Cy7 (MQ1-17H12, Biolegend), anti-IFN-7-BV421 (4S.B3, Biolegend), anti-TNF-α-BV785 (MAb11, Biolegend), anti-TNF-α-APC (MAb11, Biolegend) antibodies, followed by flow cytometry analysis. For intracellular staining, brefeldin A (Biolegend) was added to the cell culture medium 4 h before cells were harvested. The viability of cancer cells that grow in suspension including THP-1 cells was assessed by flow cytometry-based absolute cell counting using AccuCount beads (Spherotech). For adherent cancer cells including BxPC3, MIA PaCa-2, MDA-MB-231 and MCF7, the cell viability was quantified using CellTiter-Blue Cell Viability Assay (Promega).

Cc1ccc2c(c1)C=Cc1cc(C)ccc1C2c1cn(Cc2ccc(C(=O)Nc3nn[nH]n3)o2)c(=O)[nH]c1=S [AR-C 118925XX]
increased: expression of T cell activation marker CD25 | expression of T cell activation marker CD69 | expression of T cell activation marker IFN-7

— US20250281610A1, “P2RY2 ACTIVITY MODULATORS” (Deutsches Krebsforschungszentrum Stiftung des öffentlichen …, priority 2022, published 2025)
